Assay results reported in article PMC10066365, “Nemacol is a small molecule inhibitor of C. elegans vesicular acetylcholine transporter with anthelmintic potential” (Nature Communications, 2023).
Values joined by “and” are separate entries in the source; they are usually repeats but may differ in a detail not shown here. Equal entries are not always repeated. “Also recorded” adds a separate entry of the source.

Test system: C. elegans
Experiment: C. elegans motor phenotype scoring on solid media (Punc/jerky-unc, coiled, paralyzed), wild-type young adults
Format: in vivo, Caenorhabditis elegans
Details: for any phene, mean % fraction of young adults exhibiting any phenotype (coiled, jerky-Unc or paralyzed) / atypical locomotion (number of animals) / coiled (number of animals) / no phene (number of animals) / paralyzed (number of animals): one hour; for any phene, mean % fraction of young adults exhibiting any phenotype (coiled, jerky-Unc or paralyzed): mean of three biological replicates; for atypical locomotion (number of animals) / coiled (number of animals) / no phene (number of animals) / paralyzed (number of animals): young adults, 20 animals per trial, single replicate counts; for Fraction Coiled / Fraction Paralyzed / Fraction Punc: single experiment

## O=[N+]([O-])c1ccc(N2CCN(CC3CC4C=CC3C4)CC2)cc1 (stereo not drawn) [Nemacol-3]
3.75uM
  any phene, mean % fraction of young adults exhibiting any phenotype (coiled, jerky-Unc or paralyzed): 19.1667%
  atypical locomotion (number of animals): 0 and 13 and 10
  coiled (number of animals): 0
  no phene (number of animals): 20 and 7 and 10
  paralyzed (number of animals): 0
15 μM, 30 min, adults
  C1 (number of animals scored): 0
  C2 (number of animals scored): 0
  Fraction Coiled, AVERAGES: 0.0
  Fraction Paralyzed, AVERAGES: 0.0
  Fraction Punc, AVERAGES: 0.111
  NP (number of animals scored): 17 and 14
  P (number of animals scored): 0
  Fraction Coiled: 0.0
  Fraction Paralyzed: 0.0
15 μM, 60 min, adults
  C1 (number of animals scored): 0
  C2 (number of animals scored): 0
  Fraction Coiled, AVERAGES: 0.0
  Fraction Paralyzed, AVERAGES: 0.0
  Fraction Punc, AVERAGES: 0.4
  P (number of animals scored): 0
  Fraction Coiled: 0.0
  Fraction Paralyzed: 0.0
15 μM, 90 min, adults
  C1 (number of animals scored): 0
  C2 (number of animals scored): 0
  Fraction Coiled, AVERAGES: 0.0
  Fraction Paralyzed, AVERAGES: 0.0
  Fraction Punc, AVERAGES: 0.167
  NP (number of animals scored): 16 and 14 and 15
  P (number of animals scored): 0
  Punc (number of animals scored): 2 and 4 and 3
  Fraction Coiled: 0.0
  Fraction Paralyzed: 0.0
  Fraction Punc: 0.111 and 0.222 and 0.167
15 μM, 120 min, adults
  C1 (number of animals scored): 0
  C2 (number of animals scored): 0
  Fraction Coiled, AVERAGES: 0.0
  Fraction Paralyzed, AVERAGES: 0.0
  Fraction Punc, AVERAGES: 0.0185
  NP (number of animals scored): 18 and 17
  P (number of animals scored): 0
  Fraction Coiled: 0.0
  Fraction Paralyzed: 0.0
15 μM, 240 min, adults
  C1 (number of animals scored): 0
  C2 (number of animals scored): 0
  Fraction Coiled, AVERAGES: 0.0
  Fraction Paralyzed, AVERAGES: 0.0
  Fraction Punc, AVERAGES: 0.0
  NP (number of animals scored): 18
  P (number of animals scored): 0
  Punc (number of animals scored): 0
  Fraction Coiled: 0.0
  Fraction Paralyzed: 0.0
  Fraction Punc: 0.0
15 μM, 360 min, adults
  C1 (number of animals scored): 0
  C2 (number of animals scored): 0
  Fraction Coiled, AVERAGES: 0.0
  Fraction Paralyzed, AVERAGES: 0.0
  Fraction Punc, AVERAGES: 0.0
  NP (number of animals scored): 18
  P (number of animals scored): 0
  Punc (number of animals scored): 0
  Fraction Coiled: 0.0
  Fraction Paralyzed: 0.0
  Fraction Punc: 0.0
15 μM, next day, adults
  Next Day: Animals alive (moving fine): alive, recovered; also recorded: alive recovered
15uM
  any phene, mean % fraction of young adults exhibiting any phenotype (coiled, jerky-Unc or paralyzed): 65.4545%
  atypical locomotion (number of animals): 12 and 14 and 4 and 3 and 7
  coiled (number of animals): 2 and 1 and 5
  no phene (number of animals): 6 and 5 and 15 and 16 and 0
  paralyzed (number of animals): 2 and 0 and 8 and 11
30 μM, 30 min, adults
  C1 (number of animals scored): 0
  C2 (number of animals scored): 0
  Fraction Coiled, AVERAGES: 0.0
  Fraction Paralyzed, AVERAGES: 0.0
  Fraction Punc, AVERAGES: 0.333
  NP (number of animals scored): 14 and 11
  P (number of animals scored): 0
  Punc (number of animals scored): 4 and 7
  Fraction Coiled: 0.0
  Fraction Paralyzed: 0.0
  Fraction Punc: 0.222 and 0.4
30 μM, 60 min, adults
  C1 (number of animals scored): 0
  C2 (number of animals scored): 0
  Fraction Coiled, AVERAGES: 0.0
  Fraction Paralyzed, AVERAGES: 0.0
  Fraction Punc, AVERAGES: 0.6
  P (number of animals scored): 0
  Punc (number of animals scored): 8 and 15
  Fraction Coiled: 0.0
  Fraction Paralyzed: 0.0
  Fraction Punc: 0.444 and 0.8
30 μM, 90 min, adults
  C1 (number of animals scored): 0
  C2 (number of animals scored): 0
  Fraction Coiled, AVERAGES: 0.0
  Fraction Paralyzed, AVERAGES: 0.0
  Fraction Punc, AVERAGES: 0.3
  NP (number of animals scored): 13 and 9 and 16
  P (number of animals scored): 0
  Fraction Coiled: 0.0
  Fraction Paralyzed: 0.0
30 μM, 120 min, adults
  C1 (number of animals scored): 0
  C2 (number of animals scored): 0
